Assays:
5HT1B receptor [1] = molecular target: T1, 5HT1B receptor (Cavia porcellus, UniProt O08892); assay: in-vitro autoradiographies with compound I-B; format: binding; conditions: in-vitro autoradiography, Guinea pig
T1 construct: in-vitro autoradiographies and ex-vivo experiments in Guinea pig; from tissue; host or cells: guinea pig brain (external globus pallidus, ventral pallidum)

5HT1B receptor [2] = molecular target: T1, 5HT1B receptor; assay: ex-vivo experiments with compound I-B; format: in vivo; conditions: Guinea pig
5HT1B receptor [3] = molecular target: T2, 5HT1B receptor (Macaca mulatta, UniProt F6SFA9); assay: in-vivo PET-experiments with compound I-B; conditions: Rhesus monkeys
T2 construct: in-vivo PET-experiments in Rhesus monkeys; from tissue; host or cells: brain of living rhesus monkeys (PET)
T2 sequence (F6SFA9 1-390): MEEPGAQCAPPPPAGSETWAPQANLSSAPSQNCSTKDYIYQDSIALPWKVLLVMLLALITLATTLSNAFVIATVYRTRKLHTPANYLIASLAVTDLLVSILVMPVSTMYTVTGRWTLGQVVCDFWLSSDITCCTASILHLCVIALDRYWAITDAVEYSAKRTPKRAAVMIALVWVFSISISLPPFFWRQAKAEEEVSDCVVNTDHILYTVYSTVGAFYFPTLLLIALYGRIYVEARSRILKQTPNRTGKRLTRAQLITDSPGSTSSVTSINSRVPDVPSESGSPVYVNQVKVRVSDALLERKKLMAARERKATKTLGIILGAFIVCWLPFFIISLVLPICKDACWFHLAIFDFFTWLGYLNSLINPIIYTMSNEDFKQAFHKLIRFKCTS

T1 sequence (O08892 whole entry): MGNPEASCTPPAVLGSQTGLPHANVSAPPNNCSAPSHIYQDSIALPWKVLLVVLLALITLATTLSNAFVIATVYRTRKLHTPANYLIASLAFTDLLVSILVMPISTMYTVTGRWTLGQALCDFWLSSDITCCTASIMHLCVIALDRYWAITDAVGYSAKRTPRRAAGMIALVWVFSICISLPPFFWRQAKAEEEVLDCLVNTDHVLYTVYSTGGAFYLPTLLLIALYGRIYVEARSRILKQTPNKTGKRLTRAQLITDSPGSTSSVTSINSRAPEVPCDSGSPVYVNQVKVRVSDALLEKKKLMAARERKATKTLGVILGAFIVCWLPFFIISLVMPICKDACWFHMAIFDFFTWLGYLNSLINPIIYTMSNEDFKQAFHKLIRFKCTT

COC(C)(C)c1ccc(N2CC[C@@H](Cc3ccccc3N3CCN([11CH3])CC3)C2=O)cc1 [compound I-B, R-1-[4-(2-methoxy-isopropyl)-phenyl]-3-[2-(4-[^11C]methyl-piperazin-1-yl)benzyl]-pyrrolidin-2-one]
sensitivity of uptake to blocking by other 5HT1B antagonists (5HT1B receptor [1]): sensitive to blocking by other 5HT1B antagonists in a dose dependent manner
specific uptake (regional distribution) (5HT1B receptor [1]): specific uptake of compound I-B mainly in the external globus pallidus and ventral pallidum
sensitivity of uptake to blocking by other 5HT1B antagonists (5HT1B receptor [2]): sensitive to blocking by other 5HT1B antagonists in a dose dependent manner
specific uptake (regional distribution) (5HT1B receptor [2]): specific uptake of compound I-B mainly in the external globus pallidus and ventral pallidum
sensitivity of uptake to blocking by other 5HT1B antagonists (5HT1B receptor [3]): sensitive to blocking by other 5HT1B antagonists in a dose dependent manner
specific uptake (regional distribution) (5HT1B receptor [3]): specific uptake of compound I-B mainly in the external globus pallidus and ventral pallidum
